# Test results reported in ChEMBL document CHEMBL1201862, “PubChem BioAssay data set” (2004).
#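 Exposure lasted 48 hours, with cells grown in 96-well plates and compounds tested at five concentrations. At the GI50, growth is halved.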 Active and inactive are the calls of the source. Rule as the data show it: active = GI50 up to about 1.1 µM and inactive = higher.
# What was measured:
# Test in all cases: NCI-60 cell line screen, 48 h
# [1] = tested on: NCI-H23
# [2] = tested on: EKVX
# [3] = tested on: T47D
# [4] = tested on: A498
# [5] = tested on: COLO 205
# [6] = tested on: HCT-116
# [7] = tested on: A549
# [8] = tested on: SK-MEL-28
# [9] = tested on: MOLT-4
# [10] = tested on: Hs-578T
# [11] = tested on: MDA-MB-231
# [12] = tested on: HL-60
# [13] = tested on: CCRF-CEM
# [14] = tested on: UACC-257
# [15] = tested on: SW-620
# [16] = tested on: HT-29
# [17] = tested on: SR
# [18] = tested on: SK-OV-3
# [19] = tested on: SNB-19
# [20] = tested on: K562
# [21] = tested on: TK-10
# [22] = tested on: UACC-62
# [23] = tested on: SF-539
# [24] = tested on: CAKI-1
# [25] = tested on: PC-3
# [26] = tested on: NCI-H226
# [27] = tested on: LOX IMVI
# [28] = tested on: MDA-MB-435
# [29] = tested on: HCC 2998
# [30] = tested on: ACHN
# [31] = tested on: DU-145
# [32] = tested on: HOP-92
# [33] = tested on: UO-31
# [34] = tested on: Malme-3M
# [35] = tested on: MDA-N
# [36] = tested on: HOP-62
# [37] = tested on: KM12
# [38] = tested on: RPMI-8226
# [39] = tested on: SK-MEL-5
# [40] = tested on: SF-295
# [41] = tested on: SN12C
# [42] = tested on: HCT-15
# [43] = tested on: 786-0
# [44] = tested on: MCF7
# [45] = tested on: SF-268
# [46] = tested on: OVCAR-3
# [47] = tested on: NCI/ADR-RES
# [48] = tested on: NCI-H460
# [49] = tested on: M14
# [50] = tested on: OVCAR-5
# [51] = tested on: RXF 393
# [52] = tested on: SK-MEL-2
# [53] = tested on: U-251
# [54] = tested on: OVCAR-4
# [55] = tested on: OVCAR-8
# [56] = tested on: IGROV-1
# [57] = tested on: BT-549
# [58] = tested on: NCI-H522
# [59] = tested on: SNB-75
compound,measurement,setting,value
CC1S/C(=N\N=C2/C(=O)Nc3ccc(Br)cc32)N(C2CCCCC2)C1=O (stereo unspecified),GI50,[1],4.42 µM (inactive)
same,GI50,[2],4.16 µM (inactive)
same,GI50,[3],3.96 µM (inactive)
same,GI50,[4],3.04 µM (inactive)
same,GI50,[5],3.85 µM (inactive)
same,GI50,[6],2.24 µM (inactive)
same,GI50,[7],3.41 µM (inactive)
same,GI50,[8],6.08 µM (inactive)
same,GI50,[9],5.37 µM (inactive)
same,GI50,[10],3.22 µM (inactive)
same,GI50,[11],2.18 µM (inactive)
same,GI50,[12],5.85 µM (inactive)
same,GI50,[13],39.8 µM (inactive)
same,GI50,[14],21 µM (inactive)
same,GI50,[15],11.7 µM (inactive)
same,GI50,[16],8.69 µM (inactive)
same,GI50,[17],5.06 µM (inactive)
same,GI50,[18],2.84 µM (inactive)
same,GI50,[19],4.06 µM (inactive)
same,GI50,[20],> 100 µM (inactive)
same,GI50,[21],1.15 µM (inactive)
same,GI50,[22],2.01 µM (inactive)
same,GI50,[23],3.66 µM (inactive)
same,GI50,[24],1.8 µM (inactive)
same,GI50,[25],5.36 µM (inactive)
same,GI50,[26],4.03 µM (inactive)
same,GI50,[27],3.62 µM (inactive)
same,GI50,[28],5.37 µM (inactive)
same,GI50,[29],4.08 µM (inactive)
same,GI50,[30],1.16 µM (inactive)
same,GI50,[31],3.73 µM (inactive)
same,GI50,[32],7.46 µM (inactive)
same,GI50,[33],1.06 µM (active)
same,GI50,[34],9.23 µM (inactive)
same,GI50,[35],12.1 µM (inactive)
same,GI50,[36],2.09 µM (inactive)
same,GI50,[37],4.65 µM (inactive)
same,GI50,[38],16.8 µM (inactive)
same,GI50,[39],40.6 µM (inactive)
same,GI50,[40],3.89 µM (inactive)
same,GI50,[41],2.93 µM (inactive)
same,GI50,[42],3.87 µM
same,GI50,[43],2.59 µM (inactive)
same,GI50,[44],12.5 µM (inactive)
same,GI50,[45],6.38 µM (inactive)
same,GI50,[46],2.75 µM (inactive)
same,GI50,[47],3.4 µM (inactive)
same,GI50,[48],3.96 µM (inactive)
same,GI50,[49],4.29 µM (inactive)
same,GI50,[50],14.4 µM (inactive)
same,GI50,[51],3.21 µM (inactive)
same,GI50,[52],1.45 µM (inactive)
same,GI50,[53],2.54 µM (inactive)
same,GI50,[54],1.89 µM (inactive)
[O-][S+](Nc1ccccc1)c1ccc(N2CCOCC2)cc1 (stereo unspecified),GI50,[1],> 100 µM (inactive)
same,GI50,[2],94.6 µM (inactive)
same,GI50,[3],13.7 µM (inactive)
same,GI50,[5],59.6 µM (inactive)
same,GI50,[6],21.2 µM (inactive)
same,GI50,[7],43.9 µM (inactive)
same,GI50,[8],> 100 µM (inactive)
same,GI50,[9],44.7 µM (inactive)
same,GI50,[10],> 100 µM (inactive)
same,GI50,[11],86.7 µM (inactive)
same,GI50,[12],53.8 µM (inactive)
same,GI50,[13],54.2 µM (inactive)
same,GI50,[14],34.2 µM (inactive)
same,GI50,[15],30.1 µM (inactive)
same,GI50,[16],36.3 µM (inactive)
same,GI50,[17],60.3 µM (inactive)
same,GI50,[19],> 100 µM (inactive)
same,GI50,[20],27.3 µM (inactive)
same,GI50,[21],> 100 µM (inactive)
same,GI50,[22],9.12 µM (inactive)
same,GI50,[23],35.8 µM (inactive)
same,GI50,[26],> 100 µM (inactive)
same,GI50,[55],> 100 µM (inactive)
same,GI50,[27],71 µM (inactive)
same,GI50,[28],32.7 µM (inactive)
same,GI50,[29],91.2 µM (inactive)
same,GI50,[30],65.8 µM (inactive)
same,GI50,[31],51.4 µM (inactive)
same,GI50,[33],10.8 µM (inactive)
same,GI50,[56],13.6 µM (inactive)
same,GI50,[34],36.4 µM (inactive)
same,GI50,[57],6.82 µM (inactive)
same,GI50,[36],> 100 µM (inactive)
same,GI50,[37],23.6 µM (inactive)
same,GI50,[38],58.7 µM (inactive)
same,GI50,[39],39.8 µM (inactive)
same,GI50,[40],> 100 µM (inactive)
same,GI50,[41],> 100 µM (inactive)
same,GI50,[42],13 µM
same,GI50,[43],88.9 µM (inactive)
same,GI50,[44],57.4 µM (inactive)
same,GI50,[58],32.8 µM (inactive)
same,GI50,[45],15.4 µM (inactive)
same,GI50,[46],> 100 µM (inactive)
same,GI50,[47],51.9 µM (inactive)
same,GI50,[48],42.6 µM (inactive)
same,GI50,[49],> 100 µM (inactive)
same,GI50,[50],> 10 µM (inactive)
same,GI50,[52],> 100 µM (inactive)
same,GI50,[53],> 100 µM (inactive)
same,GI50,[54],> 100 µM (inactive)
CSc1ccc(NC(=O)CCl)cc1,GI50,[1],9.59 µM (inactive)
same,GI50,[2],> 10 µM (inactive)
same,GI50,[3],> 10 µM (inactive)
same,GI50,[5],3.02 µM (inactive)
same,GI50,[6],3.03 µM (inactive)
same,GI50,[7],2.44 µM (inactive)
same,GI50,[8],5.7 µM (inactive)
same,GI50,[9],3.4 µM (inactive)
same,GI50,[10],3.1 µM (inactive)
same,GI50,[11],7.31 µM (inactive)
same,GI50,[12],3.33 µM (inactive)
same,GI50,[13],2.43 µM (inactive)
same,GI50,[14],6.18 µM (inactive)
same,GI50,[15],8.32 µM (inactive)
same,GI50,[16],3.65 µM (inactive)
same,GI50,[17],2.7 µM (inactive)
same,GI50,[18],> 10 µM (inactive)
same,GI50,[19],4.86 µM (inactive)
same,GI50,[20],3.13 µM (inactive)
same,GI50,[21],> 10 µM (inactive)
same,GI50,[22],1.85 µM (inactive)
same,GI50,[23],3.95 µM (inactive)
same,GI50,[24],2.97 µM (inactive)
same,GI50,[25],3.9 µM (inactive)
same,GI50,[26],> 10 µM (inactive)
same,GI50,[55],3.51 µM (inactive)
same,GI50,[27],5.15 µM (inactive)
same,GI50,[28],4.03 µM (inactive)
same,GI50,[29],2.18 µM (inactive)
same,GI50,[30],> 10 µM (inactive)
same,GI50,[31],> 10 µM (inactive)
same,GI50,[32],2.63 µM (inactive)
same,GI50,[33],2.23 µM (inactive)
same,GI50,[56],4.73 µM (inactive)
same,GI50,[35],4.84 µM (inactive)
same,GI50,[36],3.52 µM (inactive)
same,GI50,[37],> 10 µM (inactive)
same,GI50,[38],3.32 µM (inactive)
same,GI50,[39],2.08 µM (inactive)
same,GI50,[59],2.53 µM (inactive)
same,GI50,[40],2.58 µM (inactive)
same,GI50,[41],6.82 µM (inactive)
same,GI50,[42],5.97 µM
same,GI50,[43],6.38 µM (inactive)
same,GI50,[44],3.51 µM (inactive)
same,GI50,[58],1.95 µM (inactive)
same,GI50,[45],> 10 µM (inactive)
same,GI50,[46],3.75 µM (inactive)
same,GI50,[47],3.24 µM (inactive)
same,GI50,[48],2.41 µM (inactive)
same,GI50,[49],1.92 µM (inactive)
same,GI50,[50],3.33 µM (inactive)
same,GI50,[51],3.17 µM (inactive)
same,GI50,[52],1.81 µM (inactive)
same,GI50,[53],5.19 µM (inactive)
same,GI50,[54],> 10 µM (inactive)
